Reference: patent publication US11654138B2, “Therapeutic agents for treating and preventing autoimmune diseases and cancer and a screening method” (KING FAISAL UNIVERSITY, priority 2019, dated 2023)

Legend:
CIA = experiment: Collagen-induced arthritis (CIA) model; assay type: in vivo, C57BL mice; settings: for CIA clinical scores: 0.25 mg i.p. on days 0, 3, 6, 9, 12, 15, 18, vs corn oil, FIG. 7A; for Serum level of IL-6 / Frequency of CD4+IL-17+ cells in the secondary lymphoid organs: 0.25 mg i.p.; for Serum level of IL-6: day 45, FIG. 7B; for Frequency of CD4+IL-17+ cells in the secondary lymphoid organs: day 45, flow cytometry, FIG. 7C
IMQ-induced psoriasis = IMQ-induced psoriasis model; assay type: in vivo, male BALB/c mice; settings: for Clinical scores (erythema and thickness of the right ear): topical ointment 40 mg/cm^2 day 0 to 8, vs Vaseline, FIG. 8A; for Il6 mRNA expression in whole biopsies of the right ear / Il17a mRNA expression in whole biopsies of the right ear: topical ointment, day 8, FIG. 8B
Description: Experimental psoriasis was induced following a modified method described previously (Sun et al. 2013). To induce disease in male BALB/c mice (6-8 weeks; n=6), imiquimod (IMG; Sichuan Med-Shine Pharmaceutical) at 5% was applied topically at 20 mg/cm^2 on the inside of the right ear for 8 consecutive days. An evaluation system for assessment of erythema and thickness of the ear was developed. Erythema was assessed using a table with red […] (0-4) and ear thickness (0-4) measured using a digital caliber on days 2, 4, 6, and 8 after first IMQ application. The sum of the two parameters scores (ranging from 0-8) was used to indicate the overall clinical score. Treatment ointment was prepared by mixing 1 mg of DMSO-dissolved POE or its representative analogs including POE A2 or POE A3 with 20 gm of Vaseline Petroleum Jelly Original (vehicle, Unilever Inc.); the mixture was then incubated at room temperature overnight. From day 0 to day 8 the mice were treated topically with the treatment ointment (40 mg/cm^2) or Vaseline (IMQ/control). The mRNAs encoding Il6 and Il17a were isolated from whole biopsies of the ear (day 8) and reverse transcribed to make cDNA. The cDNA was then amplified by real-time PCR using TaqMan Gene Expression Assays (Mm00446190_ml, Mm00439618_ml, respectively; Applied Biosystems). The relative expression of mRNAs was calculated by the ΔΔCt method and presented relative to that of IMQ control mice.

Row | Compound | CIA clinical scores (CIA) | Serum level of IL-6 (CIA) | Frequency of CD4+IL-17+ cells in the secondary lymphoid organs (CIA) | Clinical scores (erythema and thickness of the right ear) (IMQ-induced psoriasis) | Il6 mRNA expression in whole biopsies of the right ear (IMQ-induced psoriasis) | Il17a mRNA expression in whole biopsies of the right ear (IMQ-induced psoriasis)
1 | Cc1nnc(SCC(=O)c2ccccc2)o1 [POE A1] | comparably reduced CIA clinical scores | reduced serum levels of IL-6 | reduced the frequency of CD4^+IL-17^+ cells |  |  | 
2 | Cc1nnc(NCC(=O)c2ccccc2)s1 [POE A2, 2-[(5-methyl-1,3,4-thiadiazol-2-yl)amino]-1-phenylethan-1-one] | comparably reduced CIA clinical scores | reduced serum levels of IL-6 | reduced the frequency of CD4^+IL-17^+ cells | comparably reduced clinical scores | suppressed mRNA expression | suppressed mRNA expression
3 | CC(=O)CSc1nnc(-c2cccnc2)o1 [POE A3, 2-Propanone, 1-[[5-(3-pyridinyl)-1,3,4-oxadiazol-2-yl]thio]-] |  |  |  | comparably reduced clinical scores | suppressed mRNA expression | suppressed mRNA expression
